Experimental data as given in patent EP4685149A1, “NOVEL COMPOUND AS ENDOTHELIAL TO MESENCHYMAL TRANSITION (ENDMT) INHIBITOR, AND PHARMACEUTICAL COMPOSITION COMPRISING SAME” (Korea Institute of Radiological & Medical Sciences, priority 2023, dated 2024).
Where two headings read alike, the source gives them in different places.

Tested on: human vascular endothelial cell lines
Experiment: Inhibition of radiation-induced endothelial cell transition (EndMT), phalloidin immunofluorescence staining
Type: cell-based
Settings: Homo sapiens, Endothelial cell, light or radiation study, 10 uM test substance 1 hour before 10 Gy irradiation, 72 hours after irradiation, relative ratio with IR group (10 Gy alone) as 100%
Method: Test substances (Examples 1 to 45) were treated with a 10 mM DMSO solution at a ratio of 1 µL per 1 mL of cell culture medium to a final concentration of 10 uM, and the test substances were treated 1 hour before irradiation on human vascular endothelial cell lines (Promocell, Germany), and then, it was irradiated at an intensity of 10 Gy. 72 hours after irradiation, the human vascular endothelial cell lines were fixed with 10% formalin, and the experiment was conducted according to the manufacturer's method using phalloidin (Invitrogen, USA) to confirm the cytoskeleton filaments that increase during fibrosis. Phalloidin is a protein that binds to the actin of cytoskeleton filaments, and phalloidin conjugated with FITC fluorescent substance made the cytoskeleton filaments appear green when observed under a microscope.
After treatment with the test substance, the area, length and density of phalloidin were measured by using a confocal microscope, and the relative ratio was expressed with the irradiated group (IR group) that was irradiated with 10 Gy alone as 100% (Table 1).

Measured: activity at 10 µM

O[C@@H]1[C@H](O)CS[C@H]1n1cnc2c(N[C@@H]3CCc4ccccc43)ncnc21 [Example 45, (2R,3R,4S)-2-(6-(((R)-2,3-dihydro-1H-inden-1-yl)amino)-9H-purin-9-yl)tetrahydrothiophene-3,4-diol]
> 80%: read-out: Palloidin Area | read-out: Palloidin Intensity | read-out: Palloidin Length
